Here are results for 30 compounds from US9284321B2, “Piperazino[1,2-a]indol-1-ones and [1,4]diazepino[1,2-a]indol-1-one” (Hoffmann-La Roche Inc., priority 2012, dated 2016).

By melting point is commonly meant the temperature of the solid-liquid transition.

Molecules are shown by their SMILES.

The subject of series [1] is human embryonic stem cell derived neural stem cells (NSCs). As to the kind of experiment: Neural Stem Cell Proliferation Assay (neurogenesis assay, ATP levels by CellTiterGlo). It counts as cell-based. To be noted: 96 h, compound concentration at which 150% activity of control (100%) is reached, NSC proliferation by ATP level after 4 days incubation, dose response 8 μM to 8 nM. Summed up: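 Read-out is CellTiterGlo ATP luminescence after 4-day culture (37 °C, 5% CO2) of dual-SMAD-derived human ESC NSCs, dosed 4 h post-seeding at 8 μM to 8 nM (11 points, 2-fold). EC150 marks the concentration reaching 150% of the media-only control (0.25% DMSO).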

As to `Cc1c2n(c3c(-c4cccc(F)c4)cc(C#N)cc13)CCNC2=O` [Example 259, 6-(3-Fluorophenyl)-10-methyl-1-oxo-3,4-dihydro-2H-pyrazino[1,2-a]indole-8-carbonitrile], the melting point was found to be 226 °C. The compound also came in with an EC (150% of control) in series [1] of 0.06 µM.

On to `Cc1c2n(c3c(-c4ccc(Cl)c(Cl)c4)cc(C#N)cc13)CCNC2=O` [Example 260, 6-(3,4-Dichlorophenyl)-10-methyl-1-oxo-3,4-dihydro-2H-pyrazino[1,2-a]indole-8-carbonitrile], for which the melting point amounted to 245 °C. The compound also came in with an EC (150% of control) in series [1] of 0.12 µM.

Regarding `Cc1c2n(c3c(-c4cc(F)cc(F)c4)cc(C#N)cc13)CCNC2=O` [Example 261, 6-(3,5-Difluorophenyl)-10-methyl-1-oxo-3,4-dihydro-2H-pyrazino[1,2-a]indole-8-carbonitrile], the melting point came to 303 °C. The EC (150% of control) in series [1] was 0.091 µM.

Regarding `COc1ccc(-c2cc(C#N)cc3c(C)c4n(c23)CCCNC4=O)cc1` [Example 262, 7-(4-Methoxyphenyl)-11-methyl-1-oxo-2,3,4,5-tetrahydro-[1,4]diazepino[1,2-a]indole-9-carbonitrile], the melting point amounted to 277 °C. In series [1], this compound registered an EC (150% of control) of 0.029 µM.

The compound `N#Cc1cc(-c2ccc(CO)cc2)c2c(c1)cc1n2CCCNC1=O` [Example 266, 7-[4-(Hydroxymethyl)phenyl]-1-oxo-2,3,4,5-tetrahydro-[1,4]diazepino[1,2-a]indole-9-carbonitrile] came in with a melting point of 256.5 °C. In addition, the EC (150% of control) in series [1] came out at 0.93 µM.

As to `Cc1ccc(-c2cc(C#N)cc3c(C)c4n(c23)CCNC4=O)cc1F` [Example 267, 6-(3-Fluoro-4-methylphenyl)-10-methyl-1-oxo-3,4-dihydro-2H-pyrazino[1,2-a]indole-8-carbonitrile], the melting point came out at 255 °C. This compound returned an EC (150% of control) in series [1] of 0.71 µM.

`N#Cc1cccc(-c2cc(C#N)cc3cc4n(c23)CCCNC4=O)c1` [Example 269, 7-(3-Cyanophenyl)-1-oxo-2,3,4,5-tetrahydro-[1,4]diazepino[1,2-a]indole-9-carbonitrile] displayed a melting point of 225.5 °C. In series [1], this compound displayed an EC (150% of control) of 1.09 µM.

Compound `N#Cc1cc(-c2ccncc2)c2c(c1)cc1n2CCCNC1=O` [Example 271, 1-Oxo-7-pyridin-4-yl-2,3,4,5-tetrahydro-[1,4]diazepino[1,2-a]indole-9-carbonitrile] gave a melting point of 278.5 °C. Besides, in series [1], the EC (150% of control) worked out at 0.65 µM.

In turn, `N#Cc1cc(-c2ccccc2)c2c(c1)cc1n2CCCNC1=O` [Example 274, 1-Oxo-7-phenyl-2,3,4,5-tetrahydro-[1,4]diazepino[1,2-a]indole-9-carbonitrile] showed a melting point of 237.5 °C. The compound also had an EC (150% of control) in series [1] of 1.1 µM.

Turning to `COc1ccc(-c2cc(C#N)cc3cc4n(c23)CCCNC4=O)cc1` [Example 275, 7-(4-Methoxyphenyl)-1-oxo-2,3,4,5-tetrahydro-[1,4]diazepino[1,2-a]indole-9-carbonitrile], the melting point amounted to 260.5 °C. Besides, the EC (150% of control) in series [1] worked out at 1.11 µM.

Take `Cc1c2n(c3c(-c4ccc([N+](=O)[O-])cc4)cc(C#N)cc13)CCNC2=O` [Example 276, 10-Methyl-6-(4-nitrophenyl)-1-oxo-3,4-dihydro-2H-pyrazino[1,2-a]indole-8-carbonitrile]: the melting point was 312 °C. In series [1], this compound returned an EC (150% of control) of 0.11 µM.

Compound `Cc1c2n(c3c(-c4ccc(CO)cc4)cc(C#N)cc13)CCNC2=O` [Example 277, 6-[4-(Hydroxymethyl)phenyl]-10-methyl-1-oxo-3,4-dihydro-2H-pyrazino[1,2-a]indole-8-carbonitrile] had a melting point of 265 °C. In series [1], the EC (150% of control) stood at 0.025 µM.

`Cc1c2n(c3c(-c4ccc(Cl)nc4)cc(C#N)cc13)CCNC2=O` [Example 278, 6-(6-Chloropyridin-3-yl)-10-methyl-1-oxo-3,4-dihydro-2H-pyrazino[1,2-a]indole-8-carbonitrile] came in with a melting point of 318 °C. Further, in series [1], the EC (150% of control) was found to be 0.44 µM.

For `Cc1c2n(c3c(-c4cccc(C#N)c4)cc(C#N)cc13)CCNC2=O` [Example 279, 6-(3-Cyanophenyl)-10-methyl-1-oxo-3,4-dihydro-2H-pyrazino[1,2-a]indole-8-carbonitrile], the melting point was found to be 266 °C. In series [1], this compound displayed an EC (150% of control) of 0.31 µM.

The compound `Cc1c2n(c3c(-c4ccc(C(C)(C)C)cc4)cc(C#N)cc13)CCNC2=O` [Example 280, 6-(4-tert-Butylphenyl)-10-methyl-1-oxo-3,4-dihydro-2H-pyrazino[1,2-a]indole-8-carbonitrile] showed a melting point of 292 °C. Further, in series [1], the EC (150% of control) came to 0.14 µM.

Turning to `Cc1c2n(c3c(-c4ccnc(Cl)c4)cc(C#N)cc13)CCNC2=O` [Example 281, 6-(2-Chloropyridin-4-yl)-10-methyl-1-oxo-3,4-dihydro-2H-pyrazino[1,2-a]indole-8-carbonitrile], the melting point is 281 °C. Besides, the EC (150% of control) in series [1] stood at 0.22 µM.

Consider `Cc1c2n(c3c(-c4cccnc4)cc(C#N)cc13)CCNC2=O` [Example 282, 10-Methyl-1-oxo-6-pyridin-3-yl-3,4-dihydro-2H-pyrazino[1,2-a]indole-8-carbonitrile], for which the melting point was 273 °C. Further, the EC (150% of control) in series [1] is 0.96 µM.

In turn, `Cc1c2n(c3c(-c4cncnc4)cc(C#N)cc13)CCNC2=O` [Example 283, 10-Methyl-1-oxo-6-pyrimidin-5-yl-3,4-dihydro-2H-pyrazino[1,2-a]indole-8-carbonitrile] returned a melting point of 325 °C. This compound showed an EC (150% of control) in series [1] of 1.61 µM.

`N#Cc1cc(-c2ccc(F)c(F)c2F)c2c(c1)cc1n2CCCNC1=O` [Example 284, 1-Oxo-7-(2,3,4-trifluorophenyl)-2,3,4,5-tetrahydro-[1,4]diazepino[1,2-a]indole-9-carbonitrile] gave a melting point of 187 °C. This compound displayed an EC (150% of control) in series [1] of 0.16 µM.

Take `N#Cc1cc(-c2cccc(Cl)c2)c2c(c1)cc1n2CCCNC1=O` [Example 285, 7-(3-Chlorophenyl)-1-oxo-2,3,4,5-tetrahydro-[1,4]diazepino[1,2-a]indole-9-carbonitrile]: the melting point was 209 °C. This compound returned an EC (150% of control) in series [1] of 3.12 µM.

`Cc1ccc(-c2cc(C#N)cc3cc4n(c23)CCCNC4=O)cc1` [Example 287, 7-(4-Methylphenyl)-1-oxo-2,3,4,5-tetrahydro-[1,4]diazepino[1,2-a]indole-9-carbonitrile] yielded a melting point of 240.5 °C. Besides, the EC (150% of control) in series [1] came out at 0.22 µM.

Turning to `Cc1ccc(-c2cc(C#N)cc3c(C)c4n(c23)CCCNC4=O)cc1` [Example 288, 11-Methyl-7-(4-methylphenyl)-1-oxo-2,3,4,5-tetrahydro-[1,4]diazepino[1,2-a]indole-9-carbonitrile], the melting point amounted to 287 °C. Further, the EC (150% of control) in series [1] is 0.04 µM.

Consider `Cc1c2n(c3c(-c4cccc(F)c4)cc(C#N)cc13)CCCNC2=O` [Example 289, 7-(3-Fluorophenyl)-11-methyl-1-oxo-2,3,4,5-tetrahydro-[1,4]diazepino[1,2-a]indole-9-carbonitrile], for which the melting point came to 261 °C. In addition, the EC (150% of control) in series [1] was found to be 0.035 µM.

In turn, `Cc1c2n(c3c(-c4cc(F)cc(F)c4)cc(C#N)cc13)CCCNC2=O` [Example 290, 7-(3,5-Difluorophenyl)-11-methyl-1-oxo-2,3,4,5-tetrahydro-[1,4]diazepino[1,2-a]indole-9-carbonitrile] yielded a melting point of 265 °C. The EC (150% of control) in series [1] stood at 0.29 µM.

`Cc1ccc(-c2cc(C#N)cc3c(C)c4n(c23)CCCNC4=O)cc1F` [Example 291, 7-(3-Fluoro-4-methylphenyl)-11-methyl-1-oxo-2,3,4,5-tetrahydro-[1,4]diazepino[1,2-a]indole-9-carbonitrile]: the melting point was 265 °C. In series [1], this compound came in with an EC (150% of control) of 0.16 µM.

In turn, `Cc1cc(-c2cc(C#N)cc3c(C)c4n(c23)CCNC4=O)ccc1F` [Example 292, 6-(4-Fluoro-3-methylphenyl)-10-methyl-1-oxo-3,4-dihydro-2H-pyrazino[1,2-a]indole-8-carbonitrile] showed a melting point of 232 °C. Besides, in series [1], the EC (150% of control) is 0.089 µM.

`Cc1c2n(c3c(-c4ccc(S(C)(=O)=O)cc4)cc(C#N)cc13)CCNC2=O` [Example 294, 10-Methyl-6-(4-methylsulfonylphenyl)-1-oxo-3,4-dihydro-2H-pyrazino[1,2-a]indole-8-carbonitrile]: the melting point was determined as 332 °C. The compound also yielded an EC (150% of control) in series [1] of 0.27 µM.

In the case of `Cc1c2n(c3c(-c4ccc(Cl)c(C(F)(F)F)c4)cc(C#N)cc13)CCNC2=O` [Example 295, 6-[4-Chloro-3-(trifluoromethyl)phenyl]-10-methyl-1-oxo-3,4-dihydro-2H-pyrazino[1,2-a]indole-8-carbonitrile], the melting point was found to be 278 °C. The EC (150% of control) in series [1] was 0.3 µM.

In turn, `Cc1c2n(c3c(-c4ccc(Cl)c(Cl)c4)cc(C#N)cc13)CCCNC2=O` [Example 296, 7-(3,4-Dichlorophenyl)-11-methyl-1-oxo-2,3,4,5-tetrahydro-[1,4]diazepino[1,2-a]indole-9-carbonitrile] returned a melting point of 254 °C. Besides, the EC (150% of control) in series [1] worked out at 0.2 µM.

In the case of `Cc1c2n(c3c(-c4ccc(Cl)c(F)c4)cc(C#N)cc13)CCCNC2=O` [Example 297, 7-(4-Chloro-3-fluorophenyl)-11-methyl-1-oxo-2,3,4,5-tetrahydro-[1,4]diazepino[1,2-a]indole-9-carbonitrile], the melting point worked out at 247.5 °C. The EC (150% of control) in series [1] was determined as 0.096 µM.
